In PubChem BioAssay (NCI):
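Each compound was tested at five concentrations against cells in 96-well plates for 48 hours. The concentration for 50% growth inhibition is given as GI50. Definition used: TGI = concentration required for complete inhibition of growth.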

Tests used:
Test in all cases: NCI-60 cell line screen, 48 h
786-0 renal = tested on: 786-0 renal
A498 renal = tested on: A498 renal
A549 NSCLC = tested on: A549 NSCLC
ACHN renal = tested on: ACHN renal
BT-549 breast = tested on: BT-549 breast
CAKI-1 renal = tested on: CAKI-1 renal
CCRF-CEM leukemia = tested on: CCRF-CEM leukemia
COLO 205 colon = tested on: COLO 205 colon
DU-145 prostate = tested on: DU-145 prostate
EKVX NSCLC = tested on: EKVX NSCLC
HCC-2998 colon = tested on: HCC-2998 colon
HCT-116 colon = tested on: HCT-116 colon
HCT-15 colon = tested on: HCT-15 colon
HL-60(TB) leukemia = tested on: HL-60(TB) leukemia
HOP-62 NSCLC = tested on: HOP-62 NSCLC
HOP-92 NSCLC = tested on: HOP-92 NSCLC
HS 578T breast = tested on: HS 578T breast
HT29 colon = tested on: HT29 colon
IGROV1 ovarian = tested on: IGROV1 ovarian
K-562 leukemia = tested on: K-562 leukemia
KM12 colon = tested on: KM12 colon
LOX IMVI melanoma = tested on: LOX IMVI melanoma
M14 melanoma = tested on: M14 melanoma
MALME-3M melanoma = tested on: MALME-3M melanoma
MCF7 breast = tested on: MCF7 breast
MDA-MB-231 breast = tested on: MDA-MB-231 breast
MDA-MB-435 = tested on: MDA-MB-435
MOLT-4 leukemia = tested on: MOLT-4 leukemia
NCI-H226 lung = tested on: NCI-H226 lung
NCI-H23 lung = tested on: NCI-H23 lung
NCI-H460 lung = tested on: NCI-H460 lung
NCI-H522 lung = tested on: NCI-H522 lung
NCI/ADR-RES ovarian = tested on: NCI/ADR-RES ovarian
OVCAR-3 ovarian = tested on: OVCAR-3 ovarian
OVCAR-4 ovarian = tested on: OVCAR-4 ovarian
OVCAR-5 ovarian = tested on: OVCAR-5 ovarian
OVCAR-8 ovarian = tested on: OVCAR-8 ovarian
PC-3 prostate = tested on: PC-3 prostate
RXF 393 renal = tested on: RXF 393 renal
SF-268 CNS = tested on: SF-268 CNS
SF-295 CNS = tested on: SF-295 CNS
SF-539 CNS = tested on: SF-539 CNS
SK-MEL-2 melanoma = tested on: SK-MEL-2 melanoma
SK-MEL-28 melanoma = tested on: SK-MEL-28 melanoma
SK-MEL-5 melanoma = tested on: SK-MEL-5 melanoma
SK-OV-3 ovarian = tested on: SK-OV-3 ovarian
SN12C renal = tested on: SN12C renal
SNB-19 CNS = tested on: SNB-19 CNS
SR leukemia = tested on: SR leukemia
SW-620 colon = tested on: SW-620 colon
T-47D breast = tested on: T-47D breast
TK-10 renal = tested on: TK-10 renal
U251 CNS = tested on: U251 CNS
UACC-257 melanoma = tested on: UACC-257 melanoma
UACC-62 melanoma = tested on: UACC-62 melanoma
UO-31 renal = tested on: UO-31 renal

CNNC(=N\S(=O)(=O)c1cc(C(=O)Nc2ccc(Cl)cc2)c(Cl)cc1SCc1ccccc1)/N=C/c1ccc([N+](=O)[O-])s1
GI50 (786-0 renal): > 100 µM
TGI (786-0 renal): > 100 µM
GI50 (A498 renal): > 100 µM
TGI (A498 renal): > 100 µM
GI50 (A549 NSCLC): 20.5 µM
TGI (A549 NSCLC): > 100 µM
GI50 (ACHN renal): > 100 µM
TGI (ACHN renal): > 100 µM
GI50 (BT-549 breast): > 100 µM
TGI (BT-549 breast): > 100 µM
GI50 (CAKI-1 renal): > 100 µM
TGI (CAKI-1 renal): > 100 µM
GI50 (CCRF-CEM leukemia): > 85.1 µM
TGI (CCRF-CEM leukemia): > 100 µM
GI50 (COLO 205 colon): 8.97 µM
TGI (COLO 205 colon): > 100 µM
GI50 (DU-145 prostate): > 20.3 µM
TGI (DU-145 prostate): > 100 µM
GI50 (EKVX NSCLC): > 54.4 µM
TGI (EKVX NSCLC): > 100 µM
GI50 (HCC-2998 colon): 2.83 µM
TGI (HCC-2998 colon): > 100 µM
GI50 (HCT-116 colon): 2.3 µM
TGI (HCT-116 colon): > 100 µM
GI50 (HCT-15 colon): 22.5 µM
TGI (HCT-15 colon): > 100 µM
GI50 (HL-60(TB) leukemia): > 100 µM
TGI (HL-60(TB) leukemia): > 100 µM
GI50 (HOP-62 NSCLC): > 36 µM
TGI (HOP-62 NSCLC): > 100 µM
GI50 (HOP-92 NSCLC): 4.54 µM
TGI (HOP-92 NSCLC): 62.2 µM
GI50 (HS 578T breast): 38.2 µM
TGI (HS 578T breast): > 100 µM
GI50 (HT29 colon): > 28.2 µM
TGI (HT29 colon): > 100 µM
GI50 (IGROV1 ovarian): > 70.1 µM
TGI (IGROV1 ovarian): > 100 µM
GI50 (K-562 leukemia): 15.9 µM
TGI (K-562 leukemia): > 100 µM
GI50 (KM12 colon): > 100 µM
TGI (KM12 colon): > 100 µM
GI50 (LOX IMVI melanoma): > 100 µM
TGI (LOX IMVI melanoma): > 100 µM
GI50 (M14 melanoma): 10.1 µM
TGI (M14 melanoma): > 100 µM
GI50 (MALME-3M melanoma): > 100 µM
TGI (MALME-3M melanoma): > 100 µM
GI50 (MCF7 breast): > 100 µM
TGI (MCF7 breast): > 100 µM
GI50 (MDA-MB-231 breast): 6.2 µM
TGI (MDA-MB-231 breast): > 100 µM
GI50 (MDA-MB-435): 23.4 µM
TGI (MDA-MB-435): > 100 µM
GI50 (MOLT-4 leukemia): > 100 µM
TGI (MOLT-4 leukemia): > 100 µM
GI50 (NCI-H226 lung): > 100 µM
TGI (NCI-H226 lung): > 100 µM
GI50 (NCI-H23 lung): > 100 µM
TGI (NCI-H23 lung): > 100 µM
GI50 (NCI-H460 lung): 3.91 µM
TGI (NCI-H460 lung): > 27.7 µM
GI50 (NCI-H522 lung): > 100 µM
TGI (NCI-H522 lung): > 100 µM
GI50 (NCI/ADR-RES ovarian): > 100 µM
TGI (NCI/ADR-RES ovarian): > 100 µM
GI50 (OVCAR-3 ovarian): > 100 µM
TGI (OVCAR-3 ovarian): > 100 µM
GI50 (OVCAR-4 ovarian): > 100 µM
TGI (OVCAR-4 ovarian): > 100 µM
GI50 (OVCAR-5 ovarian): > 100 µM
TGI (OVCAR-5 ovarian): > 100 µM
GI50 (OVCAR-8 ovarian): > 100 µM
TGI (OVCAR-8 ovarian): > 100 µM
GI50 (PC-3 prostate): > 100 µM
TGI (PC-3 prostate): > 100 µM
GI50 (RXF 393 renal): > 100 µM
TGI (RXF 393 renal): > 100 µM
GI50 (SF-268 CNS): > 100 µM
TGI (SF-268 CNS): > 100 µM
GI50 (SF-295 CNS): > 100 µM
TGI (SF-295 CNS): > 100 µM
GI50 (SF-539 CNS): > 100 µM
TGI (SF-539 CNS): > 100 µM
GI50 (SK-MEL-2 melanoma): > 100 µM
TGI (SK-MEL-2 melanoma): > 100 µM
GI50 (SK-MEL-28 melanoma): > 100 µM
TGI (SK-MEL-28 melanoma): > 100 µM
GI50 (SK-MEL-5 melanoma): 6.57 µM
TGI (SK-MEL-5 melanoma): > 45.9 µM
GI50 (SK-OV-3 ovarian): > 100 µM
TGI (SK-OV-3 ovarian): > 100 µM
GI50 (SN12C renal): 6.6 µM
TGI (SN12C renal): > 100 µM
GI50 (SNB-19 CNS): > 100 µM
TGI (SNB-19 CNS): > 100 µM
GI50 (SR leukemia): > 100 µM
TGI (SR leukemia): > 100 µM
GI50 (SW-620 colon): > 20.9 µM
TGI (SW-620 colon): > 100 µM
GI50 (T-47D breast): 7.07 µM
TGI (T-47D breast): > 100 µM
GI50 (TK-10 renal): > 100 µM
TGI (TK-10 renal): > 100 µM
GI50 (U251 CNS): > 100 µM
TGI (U251 CNS): > 100 µM
GI50 (UACC-257 melanoma): > 100 µM
TGI (UACC-257 melanoma): > 100 µM
GI50 (UACC-62 melanoma): > 100 µM
TGI (UACC-62 melanoma): > 100 µM
GI50 (UO-31 renal): > 100 µM
TGI (UO-31 renal): > 100 µM
